In ChEMBL document CHEMBL1145234, “A new synthetic analogue of thymidine, 7-(3-bromo-phenoxy)-thymidine, inhibits the proliferation of tumor cells” (Bioorg Med Chem Lett, 2005):

test system: HeLa; assay: Inhibitory concentration against HeLa cell proliferation after 72 hours of incubation; NA means not active; type: functional, cell-based, Homo sapiens; conditions: not given; call rule not given here

With `O=c1ccn([C@H]2C[C@H](O)[C@@H](CO)O2)c(=O)[nH]1` [DEOXYURIDINE] the IC50 was “Not Active”.

test system: HeLa; assay: Inhibitory concentration against HeLa cell proliferation after 72 hours of incubation; type: functional, cell-based; conditions: Homo sapiens

In order of falling IC50:
1. Cc1cn([C@H]2C[C@H](O)[C@@H](CO)O2)c(=O)[nH]c1=O [DOXRIBTIMINE]  4000 µM
2. O=c1[nH]c(=O)n([C@H]2C[C@H](O)[C@@H](CO)O2)cc1CSc1cccc2ccccc12  500 µM
3. CCOc1ccc(OCc2cn([C@H]3C[C@H](O)[C@@H](CO)O3)c(=O)[nH]c2=O)cc1  250 µM
4. O=c1[nH]c(=O)n([C@H]2C[C@H](O)[C@@H](CO)O2)cc1COc1ccc([N+](=O)[O-])cc1  250 µM
5. Cc1ccc(OCc2cn([C@H]3C[C@H](O)[C@@H](CO)O3)c(=O)[nH]c2=O)cc1  250 µM
6. O=c1[nH]c(=O)n([C@H]2C[C@H](O)[C@@H](CO)O2)cc1COc1ccccc1  200 µM
7. COc1ccc(OCc2cn([C@H]3C[C@H](O)[C@@H](CO)O3)c(=O)[nH]c2=O)cc1  200 µM
8. O=c1[nH]c(=O)n([C@H]2C[C@H](O)[C@@H](CO)O2)cc1COc1cccc2ccccc12  50 µM
9. O=c1[nH]c(=O)n([C@H]2C[C@H](O)[C@@H](CO)O2)cc1COc1ccc2ccccc2c1  50 µM
10. O=c1[nH]c(=O)n([C@H]2C[C@H](O)[C@@H](CO)O2)cc1COc1ccc(Br)cc1  25 µM
11. O=c1[nH]c(=O)n([C@H]2C[C@H](O)[C@@H](CO)O2)cc1COc1cccc(Br)c1  15 µM
